Data set [1] concerns syncytium formation between HIV gp-120 expressing BSC-1 cells and HeLa-T4 (CD4) cells. The data set is described as follows: Syncytium formation inhibition assay. It counts as cell-based. Conditions: for Syncytium inhibitory activity ID50: 3-5 hours, 37° C.
Data set [2] relates to HTLV-III (human T cell lymphotropic virus type III). The data set is described as follows: Inhibition of HTLV-III infection in MT-4 cells (MTT). It counts as cell-based. The conditions noted are these: for EC50: HTLV-III infected MT-4 cells, 5 days, MTT. How it is done:
Human T cell lymphotropic virus type III (HTLV-III)/lymphadenopathy-associated virus is the etiologic agent of the acquired immune deficiency syndrome (AIDS) and AIDS-related complex. […] (Nakashima, H. et al., Antimicrobial Agents & Chemotherapy, 30, pp 933-937, 1986).
An HTLV type I-Carrying cell line, MT-4, was maintained in RPMI 1640 medium supplemented with 10% fetal calf serum, 100 IU of penicillin G per ml and 100 μg of streptomycin per ml at 37° C. in a CO2 incubator. HTLV-III8 was obtained from the supernatant of the Molt-4/HTLV-III8 culture. The titer of this virus preparation was 3.0×10^5 PFU/ml. MT-4 cells were infected with 0.01 MOI of HTLV-III8. The infected cells resuspended in fresh medium were mixed with a test sample solution (or medium itself for control) to give 2.5×10^4 cells in a 200 μl volume and incubated at 37° C. for 5 days. The surviving cells were measured by the MTT (3-(4,5-dimethylthiazol-2-yl)-2,5-diphenyltetrazolium bromide) method (R. Pauwels et al., J. Virol Methods, 20, pp 309-321, 1988). [formula]
Fifty percent effective concentration (EC50) was obtained from the inhibition rates.

Data set [3] is described as follows: Cytotoxicity in virus-uninfected MT-4 cells. It is filed as cell-based. Conditions: human; virus-uninfected MT-4 cells.
For data set [4], the system named is HIV-1 IIIb. The experiment in a line: Acute infection of HIV-1 IIIb in CEM-SS cells. It counts as cell-based.
A short description of data set [5]: Cytotoxicity in CEM-SS cells. It counts as cell-based. The conditions noted are these: human.
The target of data set [6] is T1, HIV envelope protein gp120 / T cells (UniProt P01730+P04578).
T1 construct: CD4 native on cells
The data set is described as follows: Binding of HIV envelope protein gp120 to T cells.

For data set [7], the system named is tubulin (3XMTP). The experiment in a line: Tubulin polymerization assay using thrice-cycled microtubule protein (3XMTP), spectrophotometric. It is filed as biochemical, calf. On the procedure:
Briefly, tubulin was purified from calf brain extracts by three cycles of polymerization at 35° C. in the presence of 1 mM GTP+2.5 mM ATP, and depolymerization at 4° C. in PM buffer pH 6.6 (0.1 M PIPES, […]) containing various concentrations of glycerol as described previously (Williams R. C. and J. C. Lee 1982 Methods in Enzymology 85: pp. 376-385). The tubulin polymerization assay was carried out using 3XMTP in PM buffer containing 0.4 M of glycerol in the presence of test-compound. The polymerization was quantitated by Shimadzu spectrophotometer (Model No. UV 2100U) at 350 nm. Effect of compound on the kinetics of tubulin polymerization was followed for 20 minutes using taxol as a positive control and DMSO as a negative control. Compound in PM buffer +0.4 M glycerol (no MTP) served as buffer (negative) controls.

The test system of data set [8] is tubulin (3XMTP). The data set is described as follows: Electron microscopic observation of microtubule assembly in 3XMTP. It is filed as biochemical, calf. The conditions noted are these: 100 μM.
The subject of data set [9] is tubulin bundling in human colon cells. The data set is described as follows: Immunofluorescence study of tubulin bundling in human colon cells. It is filed as cell-based.
The nature of data set [10]: Solubility. It is filed as physicochemical. The text has this: BU-4641V was isolated as a white amorphous powder. […] It gave positive responses to iodine vapor, sulfuric acid and ferric chloride tests, but negative responses to Rydon-Smith, Dragendorff and anthrone-sulfuric acid tests on silica gel TLC plate.
Data set [11] deals with MT-4 cells. The experiment in a line: Cytotoxicity in virus-uninfected MT-4 cells. It is filed as cell-based. Conditions: human, mt-4 cells.
In data set [12] the test system is tubulin (3XMTP). The conditions noted are these: cited from earlier work.

In brackets after ≈: the same amount, converted by molar mass. Entries after “also recorded” stand apart in the source; their conditions may differ. Where two headings read alike, the source gives them in different places.

With `CC1=CCC2(C)C(=O)C(O)=C(C(C)CO)C2CC=C(C)C(O)CCC(C)=CCC1` (stereo not drawn) [BU-4641V], the “Syncytium inhibitory activity ID50” value in data set [1] was found to be 0.46 µg/mL. For the same molecule, the “syncytium inhibitory activity (in words)” value in data set [1] (compared with dextran sulfate) is “more potent syncytium inhibitory activity; also recorded: stronger syncytium inhibitory property than that of dextran sulfate”. For the same molecule, the EC50 (commonly the midpoint of the concentration-response curve) in [2] worked out at 0.78 µg/mL (≈ 1.94 µM). In data set [2] (compared with dextran sulfate), the “activity against HTLV-III (in words)” value is “more active than dextran sulfate against HTLV-III”. Further, the figures for the CC50 in data set [3] and in data set [5] were 37.8 µg/mL (≈ 93.9 µM) and 84 µM, respectively. In addition, the “blocking of acute HIV-1 IIIb infection (in words)” value in data set [4] is recorded as “only partially blocks the acute infection of HIV-1 IIIb”. Further, 10 µM corresponded to half-maximal inhibition in data set [4] (acute infection of HIV-1 IIIb) (IC50). The “binding of HIV envelope protein gp120 to T cells” value in data set [6] was “does not affect the binding of HIV envelope protein gp120 to T cells”. Also, the “promotion of tubulin polymerization (in words)” value in [7] was “promotes tubulin polymerization in a dose dependent manner; also recorded: reversibly stimulates polymerization of purified tubulin protein; also recorded: promote tubulin polymerization”. For the same molecule, the “initial rate of tubulin polymerization (in words)” value in data set [7] (compared to taxol) is on record as “slower initial rate”. The “reversal of tubulin polymerization by CaCl2 (in words)” value in data set [7] (treatment with CaCl2) is reported as “can be reversed by treatment with CaCl2”. Besides, the “microtubule assembly by electron microscopy (in words)” value in data set [8] was “confirmed by electron microscopic observation of microtubule assembly”. Besides, the “tubulin bundling around nuclei (in words)” value in [9] is “induces tubulin bundling around nuclei”. The solubility result in data set [10] was “soluble in dimethyl sulfoxide, methanol, methylene chloride, ethyl acetate and alkaline water (such as 0.1 N NaOH); also recorded: insoluble in hexane and water”.

Take Dextran sulfate [reference compound]: the “Syncytium inhibitory activity ID50” value in data set [1] amounted to 12.0 µg/mL. The same molecule had an EC50 in data set [2] of 1.4 µg/mL. Moreover, the CC50 (usually the concentration at which the toxic effect on the cells reaches its halfway point) in data set [11] is > 1000 µg/mL.

As to `CC(=O)O[C@H]1C(=O)[C@@]2(C)[C@H]([C@H](OC(=O)c3ccccc3)[C@]3(O)C[C@H](OC(=O)[C@H](O)[C@@H](NC(=O)c4ccccc4)c4ccccc4)C(C)=C1C3(C)C)[C@]1(OC(C)=O)CO[C@@H]1C[C@@H]2O` [Taxol, reference compound], in data set [9], the “tubulin bundling around nuclei (in words)” value is on record as “induces tubulin bundling around nuclei”. Besides, in data set [12] (taxol), the “promotion of tubulin polymerization (in words), known” value was “promote tubulin polymerization”.

Consider `Nc1nc2c(ncn2[C@@H]2O[C@H](COP(=O)(O)OP(=O)(O)OP(=O)(O)O)[C@@H](O)[C@H]2O)c(=O)[nH]1` [GTP], for which the “promotion of tubulin polymerization (in words), known” value in data set [12] (GTP) was “known to reversibly promote tubulin polymerization; also recorded: only active on tubulin in the presence of microtubule associated proteins (MAPS)”.

Source of the values: patent US5266600A (priority 1992, dated 1993).
